Measurements reported in patent US20250243192A1, “CRYSTALLINE FORM OF LANIFIBRANOR” (INVENTIVA, priority 2022, published 2025).
One block for each molecule: values may come before it.

Legend:
Assay type in all cases: physicochemical
[1] = Thermogravimetry (TGA) analysis; details: temperature range 25-200° C.
Description: TGA analysis was conducted on a Mettler Toledo TGA/DSC3+ thermogravimetric analyzer. Analyses were performed on a few milligrams of sample, in 100 µL sealed aluminum pans, punctured before analysis, under nitrogen flush at 50 mL/min. A temperature range between 25° C. and 300° C. was scanned at a 10° C./min rate.

[2] = Screening for solid forms of lanifibranor
From the text: An amorphous form was further obtained.

[3] = Compression tests, pellet analysed by PXRD; details: 100 mg, 13 mm die, 10-Ton pressure for 15 minutes
Description: Compression tests were performed on the crystalline forms (alpha, beta) and on the amorphous form of lanifibranor. 100 mg of each sample were introduced between […] into a 13 mm die and subjected to a 10-Ton pressure for 15 minutes. The pellet obtained was then de-compacted and analysed by PXRD in order to monitor changes in the crystal structure of the sample.

[4] = Stability testing in accordance with EMA guidance (CPMP/ICH/2736/99), PXRD and DSC after storage
Description: Lanifibranor form beta, as obtained in example 2, was submitted to stability testing in accordance with EMA guidance (CPMP/ICH/2736/99, last revised in August 2003); the drug substance was thus stored under the following conditions: • 6 months at 30° C./65° RH, • 6 months at 40° C./75% RH, and • 12 months at 25° C./60% RH.
At the end of each storage period, the drug substance was characterized by PXRD and by DSC.

[5] = Dynamic vapor sorption (DVS) analysis; details: range 0% RH-95% RH, 25° C.
Description: DVS analysis was conducted on a SMS DVS Intrinsic system. Analyses were performed on a few milligrams of sample, in open aluminum pans at 25° C. The stability criterion for each step was a weight change lower than 0.002% on a 5 min time frame. The time criterion for each step was 100 min (minimum duration by step: 10 min). Relative humidity was scanned between 0% RH and 95% RH with 10% RH steps (40-0-95-0-95).

[6] = Competitive slurry tests (stability tests) in various solvents, solid analysed by PXRD; details: room temperature; for Form(s) present T0: immediately after stirring was initiated
Description: Competitive slurry tests were performed in various solvents such as acetone, ethanol, ethyl acetate, acetic acid, methyl ethyl ketone and methyl isobutyl ketone.
A saturated solution of lanifibranor form beta (as obtained in example 2) was prepared for each solvent. An equal amount of lanifibranor form alpha and lanifibranor form beta was introduced into a vial (50 mg+50 mg), and 250 μL of the saturated solution prepared beforehand (recovered by filtration through a 0.2 μm H-PTFE filter) were then added. The mixture was stirred at room temperature, samples of the solid were taken immediately after stirring was initiated and 24 hours after, and analyzed by PXRD to identify the solid form(s) present.

stability of the solid form upon handling/processing [2]: more stable form | change in the solid form after compression (PXRD) [3]: no significant change in the solid form | solid form stability on storage (PXRD and DSC) ([4]; 6 months at 30° C./65° RH): stable over long-term storage | solid form stability on storage (PXRD and DSC) ([4]; 6 months at 40° C./75% RH): stable over long-term storage | solid form stability on storage (PXRD and DSC) ([4]; 12 months at 25° C./60% RH): stable over long-term storage | maximum uptake (weight variation) in DVS [5]: +0.1% | relative stability of the solid forms ([6]; conclusion from the competitive slurries in all solvents): most stable form at room temperature
SMILES: O=C(O)CCCc1cc2cc(Cl)ccc2n1S(=O)(=O)c1ccc2ncsc2c1 [lanifibranor form beta, 1-(6-benzothiazolylsulfonyl)-5-chloro-1H-indole-2-butanoic acid]
weight loss in TGA curve [1]: does not highlight any significant weight loss

SMILES: O=C(O)CCCc1cc2cc(Cl)ccc2n1S(=O)(=O)c1ccc2ncsc2c1 [lanifibranor form alpha, 1-(6-benzothiazolylsulfonyl)-5-chloro-1H-indole-2-butanoic acid]
stability of the solid form upon handling/processing [2]: did readily convert to the other form upon handling/processing | change in the solid form after compression (PXRD) [3]: additional signals that could correspond to peak shifts caused by a transformation to form beta

Form(s) present T0 + 24 h ([6]; acetic acid): form beta | Form(s) present T0 ([6]; acetic acid): form alpha + form beta | Form(s) present T0 + 24 h ([6]; acetone): form beta | Form(s) present T0 ([6]; acetone): form alpha + form beta | Form(s) present T0 + 24 h ([6]; ethanol): form beta | Form(s) present T0 ([6]; ethanol): form alpha + form beta | Form(s) present T0 + 24 h ([6]; ethyl acetate): form beta | Form(s) present T0 ([6]; ethyl acetate): form alpha + form beta | Form(s) present T0 + 24 h ([6]; methyl ethyl ketone): form beta | Form(s) present T0 ([6]; methyl ethyl ketone): form alpha + form beta | Form(s) present T0 + 24 h ([6]; methyl isobutyl ketone): form beta | Form(s) present T0 ([6]; methyl isobutyl ketone): form alpha + form beta
SMILES: O=C(O)CCCc1cc2cc(Cl)ccc2n1S(=O)(=O)c1ccc2ncsc2c1 [1-(6-benzothiazolylsulfonyl)-5-chloro-1H-indole-2-butanoic acid]

SMILES: O=C(O)CCCc1cc2cc(Cl)ccc2n1S(=O)(=O)c1ccc2ncsc2c1 [amorphous form, 1-(6-benzothiazolylsulfonyl)-5-chloro-1H-indole-2-butanoic acid]
stability of the solid form upon handling/processing [2]: crystallize into form alpha or form beta even at low temperatures | change in the solid form after compression (PXRD) [3]: weak diffraction signals corresponding to form beta were detected after compression
